In ChEMBL document CHEMBL1140050, “Designed glycopeptides with different beta-turn types as synthetic probes for the detection of autoantibodies as biomarkers of multiple sclerosis” (J Med Chem, 2008) one finds IC50 data, which are given here for four molecules.

Residues, ends and D or L forms follow the SMILES beside them. *: point of attachment. NH(β-D-Glc) = OC[C@H]1O[C@@H](N*)[C@H](O)[C@@H](O)[C@@H]1O

The nature of this assay: Binding affinity to anti-CSF114 (Glc) antibody in serum from multiple sclerosis patient by ELISA.

One may read the IC50 as the concentration needed to halve the response being measured. High values mean a need for much substance, low ones inhibition by little substance. `CSCC[C@H](NC(=O)[C@H](Cc1c[nH]c2ccccc12)NC(=O)CNC(=O)[C@H](Cc1ccc(O)cc1)NC(=O)[C@@H]1CCCN1C(=O)[C@H](C)NC(=O)[C@H](CC(C)C)NC(=O)[C@H](Cc1ccccc1)NC(=O)[C@@H](NC(=O)[C@H](CO)NC(=O)[C@H](Cc1cnc[nH]1)NC(=O)CNC(=O)[C@H](CC(=O)N[C@@H]1O[C@H](CO)[C@@H](O)[C@H](O)[C@H]1O)NC(=O)[C@H](CCCNC(=N)N)NC(=O)[C@H](CCC(=O)O)NC(=O)[C@@H](NC(=O)[C@H](CCCNC(=N)N)NC(=O)[C@@H]1CCCN1C(=O)[C@@H](N)[C@@H](C)O)C(C)C)C(C)C)C(=O)N[C@H](C(=O)N[C@@H](CCCCN)C(=O)O)C(C)C` returned a half-maximal inhibitory concentration (IC50) of 0.137 µM.
In turn, `CC(=O)N[C@@H](CCC(=O)O)C(=O)N[C@@H](CCCNC(=N)N)C(=O)N1CCC[C@H]1C(=O)N[C@@H](CC(=O)N[C@@H]1O[C@H](CO)[C@@H](O)[C@H](O)[C@H]1O)C(=O)N[C@@H](Cc1cnc[nH]1)C(=O)N[C@H](C(=O)N[C@H](C(N)=O)C(C)C)[C@@H](C)O` (Ac-ERPD(NH(β-D-Glc))HTV-NH2) displayed an IC50 of 0.0149 µM.
Take `CSCC[C@H](NC(=O)[C@H](Cc1c[nH]c2ccccc12)NC(=O)CNC(=O)[C@H](Cc1ccc(O)cc1)NC(=O)[C@@H]1CCCN1C(=O)[C@H](C)NC(=O)[C@H](CC(C)C)NC(=O)[C@H](Cc1ccccc1)NC(=O)[C@@H](NC(=O)[C@@H](NC(=O)[C@H](Cc1cnc[nH]1)NC(=O)[C@H](CC(=O)N[C@@H]1O[C@H](CO)[C@@H](O)[C@H](O)[C@H]1O)NC(=O)CNC(=O)[C@H](CCCNC(=N)N)NC(=O)[C@H](CCC(=O)O)NC(=O)[C@@H](NC(=O)[C@H](CCCNC(=N)N)NC(=O)[C@@H]1CCCN1C(=O)[C@@H](N)[C@@H](C)O)C(C)C)[C@@H](C)O)C(C)C)C(=O)N[C@H](C(=O)N[C@@H](CCCCN)C(=O)O)C(C)C` (H-TPRVERGD(NH(β-D-Glc))HTVFLAPYGWMVK-OH): the half-maximal inhibitory concentration (IC50) was 0.0303 µM.
In the case of `CSCC[C@H](NC(=O)[C@H](Cc1c[nH]c2ccccc12)NC(=O)CNC(=O)[C@H](Cc1ccc(O)cc1)NC(=O)[C@@H]1CCCN1C(=O)[C@H](C)NC(=O)[C@H](CC(C)C)NC(=O)[C@H](Cc1ccccc1)NC(=O)[C@@H](NC(=O)[C@@H](NC(=O)[C@H](Cc1cnc[nH]1)NC(=O)[C@H](CC(=O)N[C@@H]1O[C@H](CO)[C@@H](O)[C@H](O)[C@H]1O)NC(=O)[C@@H]1CCCN1C(=O)[C@H](CCCNC(=N)N)NC(=O)[C@H](CCC(=O)O)NC(=O)[C@@H](NC(=O)[C@H](CCCNC(=N)N)NC(=O)[C@@H]1CCCN1C(=O)[C@@H](N)[C@@H](C)O)C(C)C)[C@@H](C)O)C(C)C)C(=O)N[C@H](C(=O)N[C@@H](CCCCN)C(=O)O)C(C)C` (H-TPRVERPD(NH(β-D-Glc))HTVFLAPYGWMVK-OH), the IC50 is 0.0118 µM.
